EC50 data for 32 molecules are collected here from patent publication US20090029983A1, “NOVEL HETEROCYCLIC COMPOUNDS HAVING ANTI-HBV ACTIVITY” (priority 2005, published 2009).

The structures appear in SMILES notation. A value given as a limit tells only on which side of the number the result lay.

The first test has as its system HBV. Briefly: HBV screening assay (viral DNA in baculovirus-HBV transduced HepG2 cells). The test is classed as cell-based. The note with it: Hepatitis B virus, HepG2, 72 h, read-out: EC50 (antiviral activity), HBV-transduced HepG2 cells, three days with compound, viral DNA by ELISA. The essentials: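 HepG2 cells transduced with baculovirus carrying the HBV genome were grown 3 days at 37 °C with compound in EMEM/10% FBS; viral DNA from lysates captured by solid-phase hybridisation with digoxigenin probes and read by anti-digoxigenin HRP ELISA. EC50 from titration curves; CC50 from non-transduced HepG2 after 3 days by MTS viability.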
(In general: In an ELISA, binding on a coated surface is turned into a signal by an enzyme label.)
The term EC50 denotes the concentration giving half of the maximal effect. With `COc1cccc(C2CCCc3c2nc2sc(C(N)=O)c(N)c2c3-c2cccs2)c1` (centres unmarked) [Compound 67, 3-Amino-8-(3-methoxy-phenyl)-4-thiophen-2-yl-5,6,7,8-tetrahydro-thieno[2,3-b]quinoline-2-carboxylic acid amide], the EC50 was above 10 µM.

In the case of `NC(=O)c1sc2nc3c(c(-c4cccs4)c2c1N)CCCC3C1CCCCC1` (centres unmarked) [Compound 68, 3-Amino-8-cyclohexyl-4-thiophen-2-yl-5,6,7,8-tetrahydro-thieno[2,3-b]quinoline-2-carboxylic acid amide], the EC50 is above 10 µM.

In the case of `COC1CCCc2c1nc1sc(C(N)=O)c(N)c1c2-c1cccs1` (centres unmarked) [Compound 69, 3-Amino-8-methoxy-4-thiophen-2-yl-5,6,7,8-tetrahydro-thieno[2,3-b]quinoline-2-carboxylic acid amide], the EC50 is below 1 µM.

Consider `C=CCC1CCCc2c1nc1sc(C(N)=O)c(N)c1c2-c1cccs1` (centres unmarked) [Compound 70, 8-Allyl-3-amino-4-thiophen-2-yl-5,6,7,8-tetrahydro-thieno[2,3-b]quinoline-2-carboxylic acid amide], for which the EC50 lay within 1 to 10 µM.

For `CCOC(=O)CC1CCCc2c1nc1sc(C(N)=O)c(N)c1c2-c1cccs1` (centres unmarked) [Compound 71, 3-Amino-8-carbethoxymethyl-4-thiophen-2-yl-5,6,7,8-tetrahydro-thieno[2,3-b]quinoline-2-carboxylic acid amide], the EC50 is above 10 µM.

With `CC1CCc2nc3sc(C(N)=O)c(N)c3c(-c3cccs3)c2C1` (centres unmarked) [Compound 72, 3-Amino-6-methyl-4-thiophen-2-yl-5,6,7,8-tetrahydro-thieno[2,3-b]quinoline-2-carboxylic acid amide], the EC50 was above 10 µM.

`CCC1CCc2nc3sc(C(N)=O)c(N)c3c(-c3cccs3)c2C1` (centres unmarked) [Compound 73, 3-Amino-6-ethyl-4-thiophen-2-yl-5,6,7,8-tetrahydro-thieno[2,3-b]quinoline-2-carboxylic acid amide]: the EC50 was above 10 µM.

With `CC1CCc2c(nc3sc(C(N)=O)c(N)c3c2-c2cccs2)C1` (centres unmarked) [Compound 74, 3-Amino-7-methyl-4-thiophen-2-yl-5,6,7,8-tetrahydro-thieno[2,3-b]quinoline-2-carboxylic acid amide], the EC50 was above 10 µM.

On to `Cc1ccsc1-c1c2c(nc3sc(C(N)=O)c(N)c13)CCCC2=O` [Compound 75, 3-Amino-4-(3-methyl-thiophen-2-yl)-5-oxo-5,6,7,8-tetrahydro-thieno[2,3-b]quinoline-2-carboxylic acid amide], for which the EC50 was below 1 µM.

Take `NC(=O)c1sc2nc3c(c(-c4cccs4)c2c1N)C(=O)CCC3` [Compound 76, 3-Amino-4-(thiophen-2-yl)-5-oxo-5,6,7,8-tetrahydro-thieno[2,3-b]quinoline-2-carboxylic acid amide]: the EC50 fell in the range of 1 to 10 µM.

In the case of `NC(=O)c1sc2nc3c(c(-c4ccc(Cl)cc4)c2c1N)C(=O)CCC3` [Compound 77, 3-Amino-4-(4-chloro-phenyl)-5-oxo-5,6,7,8-tetrahydro-thieno[2,3-b]quinoline-2-carboxylic acid amide], the half-maximal effective concentration (EC50) was above 10 µM.

Regarding `NC(=O)c1sc2nc3c(c(-c4cccs4)c2c1N)CN(C(=S)Nc1ccccc1)C3` [Compound 79, 3-Amino-6-phenylthiocarbamoyl-4-thiophen-2-yl-6,7-dihydro-5H-1-thia-6,8-diaza-s-indacene-2-carboxylic acid amide], the EC50 is above 10 µM.

As to `NC(=O)c1sc2nc3c(c(-c4cccs4)c2c1N)CN(C(=S)NCC1CCCO1)C3` (centres unmarked) [Compound 80, 3-Amino-6-[(tetrahydro-furan-2-ylmethyl)-thiocarbamoyl]-4-thiophen-2-yl-6,7-dihydro-5H-1-thia-6,8-diaza-s-indacene-2-carboxylic acid amide], the EC50 was above 10 µM.

Regarding `NC(=O)c1sc2nc3c(c(-c4cccs4)c2c1N)CN(C(=S)NC1CCCC1)C3` [Compound 81, 3-Amino-6-cyclopentylthiocarbamoyl-4-thiophen-2-yl-6,7-dihydro-5H-1-thia-6,8-diaza-s-indacene-2-carboxylic acid amide], the EC50 is 1 to 10 µM.

For the molecule `CCCCNC(=S)N1Cc2nc3sc(C(N)=O)c(N)c3c(-c3cccs3)c2C1` [Compound 82, 3-Amino-6-butylthiocarbamoyl-4-thiophen-2-yl-6,7-dihydro-5H-1-thia-6,8-diaza-s-indacene-2-carboxylic acid amide], the EC50 is 1 to 10 µM.

On to `Cc1ccc(NC(=S)N2Cc3nc4sc(C(N)=O)c(N)c4c(-c4cccs4)c3C2)cc1` [Compound 83, 3-Amino-4-thiophen-2-yl-6-p-tolylthiocarbamoyl-6,7-dihydro-5H-1-thia-6,8-diaza-s-indacene-2-carboxylic acidamide], for which the EC50 was above 10 µM.

As for `COc1cccc(NC(=S)N2Cc3nc4sc(C(N)=O)c(N)c4c(-c4cccs4)c3C2)c1` [Compound 85, 3-Amino-6-(3-methoxy-phenylthiocarbamoyl)-4-thiophen-2-yl-6,7-dihydro-5H-1-thia-6,8-diaza-s-indacene-2-carboxylic acid amide], the EC50 was above 10 µM.

In the case of `NC(=O)c1sc2nc3c(c(-c4cccs4)c2c1N)CN(C(=S)NCCCc1ccccc1)C3` [Compound 86, 3-Amino-6-(3-phenyl-propylthiocarbamoyl)-4-thiophen-2-yl-6,7-dihydro-5H-1-thia-6,8-diaza-s-indacene-2-carboxylic acid amide], the EC50 was in the range of 1 to 10 µM.

With `NC(=O)c1sc2nc3c(c(-c4cccs4)c2c1N)CN(C(=S)Nc1cccc(C(F)(F)F)c1)C3` [Compound 87, 3-Amino-4-thiophen-2-yl-6-(3-trifluoromethyl-phenylthiocarbamoyl)-6,7-dihydro-5H-1-thia-6,8-diaza-s-indacene-2-carboxylic acid amide], the EC50 was above 10 µM.

For `NC(=O)c1sc2nc3c(c(-c4cccs4)c2c1N)CN(C(=S)Nc1ccc(F)cc1)C3` [Compound 88, 3-Amino-6-(4-fluoro-phenylthiocarbamoyl)-4-thiophen-2-yl-6,7-dihydro-5H-1-thia-6,8-diaza-s-indacene-2-carboxylic acid amide], the EC50 is above 10 µM.

With `NC(=O)c1sc2nc3c(c(-c4cccs4)c2c1N)CN(C(=S)Nc1cc(Cl)cc(Cl)c1)C3` [Compound 89, 3-Amino-6-(3,5-dichloro-phenylthiocarbamoyl)-4-thiophen-2-yl-6,7-dihydro-5H-1-thia-6,8-diaza-s-indacene-2-carboxylic acid amide], the EC50 was above 10 µM.

With `COC(=O)c1ccc(NC(=S)N2Cc3nc4sc(C(N)=O)c(N)c4c(-c4cccs4)c3C2)cc1` [Compound 90, 4-[(3-Amino-2-carbaomyl-4-thiophen-2-yl-5,7-dihydro-1-thia-6,8-diaza-s-indacene-6-carbothioyl)-amino]benzoic acid methylester], the EC50 is above 10 µM.

In the case of `NC(=O)c1sc2nc3c(c(-c4cccs4)c2c1N)CN(C(=S)NC1CC1)C3` [Compound 91, 3-Amino-6-cyclopropylthiocarbamoyl-4-thiophen-2-yl-6,7-dihydro-5H-1-thia-6,8-diaza-s-indacene-2-carboxylic acid amide], the EC50 lay within 1 to 10 µM.

Take `Cc1cc(C)cc(NC(=S)N2Cc3nc4sc(C(N)=O)c(N)c4c(-c4cccs4)c3C2)c1` [Compound 92, 3-Amino-6-(3,5-dimethyl-phenylthiopcarbamoyl)-4-thiophen-2-yl-6,7-dihydro-5H-1-thia-6,8-diaza-s-indacene-2-carboxylic acid amide]: the EC50 was above 10 µM.

Consider `NC(=O)c1sc2nc3c(c(-c4cccs4)c2c1N)CN(C(=S)NCCN1CCOCC1)C3` [Compound 93, 3-Amino-6-(2-morpholin-4-yl-ethylthiocarbamoyl)-4-thiophen-2-yl-6,7-dihydro-5H-1-thia-6,8-diaza-s-indacene-2-c arboxylic acid amide], for which the EC50 is above 10 µM.

In the case of `NC(=O)c1sc2nc3c(c(-c4cccs4)c2c1N)CN(C(=S)NCCCN1CCOCC1)C3` [Compound 94, 3-Amino-6-(3-morpholin-4-yl-propylthiocarbamoyl)-4-thiophen-2-yl-6,7-dihydro-5H-1-thia-6,8-diaza-s-indacene-2-carboxylic acid amide], the EC50 was above 10 µM.

With `NC(=O)c1sc2nc3c(c(-c4cccs4)c2c1N)CN(C1=NCCS1)C3` [Compound 95, 3-Amino-6-(4,5-dihydro-thiazol-2-yl)-4-thiophen-2-yl-6,7-dihydro-5H-1-thia-6,8-diaza-s-indacene-2-carboxylic acid amide], the EC50 is below 1 µM.

As for `NC(=O)c1sc2nc3c(c(-c4cccs4)c2c1N)CN(C(=O)Nc1ccccc1)C3` [Compound 96, 3-Amino-4-thiophen-2-yl-5,7-dihydro-1-thia-6,8-diaza-s-indacene-2,6-dicarboxylicacid 2-amide 6-phenylamide], the EC50 was above 10 µM.

Regarding `CCNC(=O)N1Cc2nc3sc(C(N)=O)c(N)c3c(-c3cccs3)c2C1` [Compound 98, 3-Amino-4-thiophen-2-yl-5,7-dihydro-1-thia-6,8-diaza-s-indacene-2,6-dicarboxylicacid 2-amide 6-ethylamide], the EC50 is below 1 µM.

Regarding `NC(=O)c1sc2nc3c(c(-c4cccs4)c2c1N)CN(C(=S)Nc1ccsc1)C3` [Compound 100, 3-Amino-4-thiophen-2-yl-5,7-dihydro-1-thia-6,8-diaza-s-indacene-2,6-dicarboxylicacid 2-amide 5-thiophen-3-ylamide], the EC50 was below 1 µM.

Turning to `NC(=O)c1sc2nc3c(c(-c4cccs4)c2c1N)CN(C(=O)Nc1ccc(N2CCOCC2)nc1)C3` [Compound 102, 3-Amino-4-thiophen-2-yl-5,7-dihydro-1-thia-6,8-diaza-s-indacene-2,6-dicarboxylicacid 2-amide 6-[(6-morpholin-4-yl-pyridin-3-yl)-amide]], the EC50 is above 10 µM.

Staying with this test, now noted: read-out: EC50 (antiviral activity); HBV-transduced HepG2 cells, three days with compound, viral DNA by ELISA.
Take `NC(=O)c1sc2nc3c(c(-c4cccs4)c2c1N)CN(C(=S)NCc1ccccc1)C3` [Compound 84, 3-Amino-6-benzylthiocarbamoyl-4-thiophen-2-yl-6,7-dihydro-5H-1-thia-6,8-diaza-s-indacene-2-carboxylic acid amide]: the concentration giving a half-maximal response (EC50) lay within 1 to 10 µM.
